From EP0620210A1, “Compounds with benzamidic structure active in gastro-intestinal pathologies” (priority 1993, dated 1994) come the findings set out here.

Marks after values point to notes of the source that are not given here.

The test system of data set [1] is rabbit jejunum. In words: Spontaneous peristaltic activity on isolated rabbit jejunum. The note with it: Tyrode fluid 37°C. On the procedure:
The action on physiological peristalsis was evaluated on an isolated rabbit jejunum preparation, according to the method reported by Magnus J. in Pfluegers Arch. Gen. Physiol. 102, 123, 1904 and described by Beretta C. in Metodiche […] fisiologia e farmacologia, Tamburini Ed., Milano, 1972. For the evaluation of the physiological peristalsis and the action on the histamine, the rabbit jejunum and the guinea-pig ileum were removed from the animals sacrificed after 24 hours fasting, washed with Tyrode fluid at 37°C and perfused with the same oxygenated fluid (95% oxygen and 5% carbon dioxide) at the temperature of 37°C. The rabbit jejunum was used to evaluate the extent of the spontaneous peristaltic contractions in the presence and in the absence of the derivatives being studied. […]

The test system of data set [2] is histamine on guinea-pig ileum. The experiment in a line: Influence on the activity of histamine on isolated guinea-pig ileum (cumulative dose-response curves). As for the experimental part:
The effect on the histamine was evaluated on a preparation of guinea-pig ileum according to the method described by the above-mentioned authors. For the evaluation of the physiological peristalsis and the action on the histamine, the rabbit jejunum and the guinea-pig ileum were removed from the animals sacrificed after 24 hours fasting, washed with Tyrode fluid at 37°C and perfused with the same oxygenated fluid (95% oxygen and 5% carbon dioxide) at the temperature of 37°C. The rabbit jejunum was used to evaluate the extent of the spontaneous peristaltic contractions in the presence and in the absence of the derivatives being studied. On the guinea-pig ileum the cumulative dose-response curves to histamine were recorded in the presence of increasing concentrations of the products being examined.

In data set [3] the test system is acetylcholine activity on the rat ascending colon. The experiment in a line: Influence on the acetylcholine activity on isolated rat ascending colon (cumulative dose-response curves). Also noted: species or system Wistar rat. The conditions noted are these: De Jalon fluid 27°C. On the procedure:
Finally the effect on the acetylcholine was evaluated on the ascending colon of a rat, according to the method of Gaddum J. H. and Horton E.W. reported in Br. J. Pharmacol. Chemother. 14, 117, 1959. The effect of the products on the contracturing action of the acetylcholine was studied on the isolated ascending colon of rat, taken from Wistar rat sacrificed after 24 hours fasting, washed with De Jalon fluid at 27°C and perfused with the same oxygenated fluid (95% oxygen and 5% carbon dioxide) at the temperature of 27°C. In this case too the cumulative dose-response curves were recorded in the presence of increasing concentrations of the products being studied.

Data set [4] has as its system serotonine activity on the fornix of the rat stomach. In words: Influence on the serotonine activity on the fornix of the rat stomach. Also noted: species or system Wistar rat. As for the experimental part: The effect on the serotonine was evaluated on the fornix of the stomach of a rat according to the method of Vane J.R. in Br. J. Pharmacol. Chemother 12, 344, 1957. The action on the serotonine was evaluated on the fornix of the stomach of rat, also taken from Wistar rat sacrificed after 24 hours fasting, following the technique reported by Vane J.R. in Br. J. Pharmacol. Chemoter. 12, 344, 1957, as previously described.

In data set [5] the test system is Swiss albino mice. The experiment in a line: Test of the progression of the opaque meal in the mouse (intestinal transit). In kind it is in vivo. As for the experimental part: The prokinetic action was evaluated in vivo on Swiss albino mice determining the influence of the products on the intestinal transit of an opaque meal, according to the method described by […]. and Barba-Gose J. in J. Amer. Pharm. Ass. 20, 558, 1931 and later by Witkin L.B. et al. in J. Pharmacol. Exp. Ther. […] The method involved the administration of an opaque meal to the mice after a 24 hour fast, through gastric probe, 15 minutes after the administration of the product. After sacrificing the animals 20 minutes after the administration of the opaque meal, the percentage of the length of the intestine travelled by the opaque meal was calculated. […]

The test system of data set [6] is rat. In words: Test of gastric dumping in the rat. In kind it is in vivo. The note with it: 30' before the administration of the coloured meal. On the procedure: Within the gastro-duodenal tract, the prokinetic activity was evaluated by means of the test of gastric dumping in the rat, according to the method reported by Scarpignato C. in J. Pharmacol 14, 261, 1983. […]

Data set [7] has as its system pigeon. The experiment in a line: Test of vomit from cisplatin in the pigeon (antiemetic activity). The conditions noted are these: one hour before 7.5 mg/kg cisplatin; for Acts of vomit (average/anim.) / Animals that vomit %: observation 3 hours. In kind it is in vivo. On the procedure:
Finally the antiemetic activity was evaluated in the pigeon after induction of emesis with cisplatin, according to the method of Preziosi P. et al. in Eur. J. Pharmacol. 221, 343, 1992.

Data set [8] has as its system Sprague-Dawley rats. In words: Study of acute toxicity (LD50). The data set is classed as in vivo. The conditions noted are these: i.v., rats of both sexes, observation period of 14 days. As for the experimental part: The acute toxicity (LD₅₀) of the derivatives described in this invention was evaluated according to the method reported by Lietchfield J.T. and Wilcoxon F. in J. Pharmacol. Exp. Ther. 96, 99, 1949, on Sprague-Dawley rats of both sexes, over an observation period of 14 days from the day of treatment.

Data set [9] has as its system rats. In words: Irwin's test (behaviour), modified to use rats. In kind it is in vivo. The conditions noted are these: 10 mg/Kg i.p., preliminary studies. The source says:
Finally, preliminary studies on the effects as regards behaviour have been performed by means of Irwin's test, according to the method reported by Irwin S. in Gordon Res. Conf. on Medicinal Chem. 1959, 133, 1959, modified in that rats were used instead of mice.

For the molecule `CCN(CC)CCCNC(=O)c1cc(Cl)ccc1NC.O=C(O)C(=O)O` [Example 8, 5-Chloro-N-[3-(diethylamino)propyl]-2-methylaminobenzamide oxalate], the “maximum effect % (max. increase of extent of the contractions)” value in [1] was “+17.8%”. Further, the effect entry in data set [2] is “mixed antagonism”; in [3] it was “non competitive antagonism”; in data set [4], “competitive antagonism”. Also, in data set [5] (17.3 µg/Kg p.o., 15' before the opaque meal, * = p < 0.05), the “variation in % with respect to the controls” value was 0.0%. Further, the “% of intestine (from pylorus to anus) travelled by the opaque meal” value is 41.0% in [5] (17.3 µg/Kg p.o., 15' before the opaque meal, sacrifice 20 minutes after the meal) and 59.9% in [5] (dose five times greater than ED₅₀). Besides, the “prokinetic activity compared with the reference drug” value in data set [5] (dose 5 times greater than ED₅₀, reference drug cisapride) was “considerably more active than the reference drug”. Further, the “Variation % with respect to the controls” value in data set [5] (dose five times greater than ED₅₀, * = p < 0.05) is 47.5* %. The “Increase % of the gastric dumping with respect to the controls 20' after the coloured meal” value in [6] (5.0 µg/kg) was 0.0%; in data set [6] (10.0 µg/kg) it was 60.9* %; in data set [6] (50.0 µg/kg) it was 74.8* %; in [6] (100.0 µg/kg), 8.7%; in data set [6] (200.0 µg/kg), 58.7* %. For the same molecule, the “Latency of 1st act of vomit” value in data set [7] (50.0 μg/kg i.m.) and in data set [7] (100.0 μg/kg i.m.) was 100 min each time. The “Variation % of the time of latency with respect to the controls” value in data set [7] (50.0 μg/kg i.m.) and in data set [7] (100.0 μg/kg i.m.) was “+18.3%” throughout. Also, the “Acts of vomit (average/anim.)” value in [7] (50.0 μg/kg i.m.) turned out to be 7.5; in [7] (100.0 μg/kg i.m.) it was 7.0. Also, the “Animals that vomit %” value in data set [7] (50.0 μg/kg i.m.) and in data set [7] (100.0 μg/kg i.m.) was 100.0% each time. For the same molecule, the “LD ₅₀” value in data set [8] amounted to 60 mg/Kg/i.v. The “variations in behaviour parameters (consciousness, mood, motor activity, excitation of the central nervous system, posture, motor coordination, muscular tone, reflexes, autonomous nervous system)” value in [9] is “no significant variations with respect to the controls”.
